Peptide text beside a SMILES is read from it.
Key:
[1] = water-solubility of the peptide; type: physicochemical
Source text: This peptide is hydrophilic and its water-solubility is very good.

[2] = test system: intravascular thrombus; assay: experimental thrombosis: intravascular thrombus induced by a specific lesion of the arterial wall, guineapig; type: in vivo; details: direct intravenous injection
Method: Experimental work on thrombosis carried out on two different animal species (rat and guineapig) have shown that the peptides according to the invention, in particular the peptides of the general formula […] (II), viz. particularly peptide […] (peptide 1) and peptide […] […] The type of thrombus which is thus induced takes into account the participation of the blood platelets against which the peptide exerts its activity but also the reactivity of the injured vascular wall.

[3] = test system: intravascular thrombus; assay: experimental thrombosis: intravascular thrombus induced by a specific lesion of the arterial wall, rat; type: in vivo; details: direct intravenous injection
Method: Experimental work on thrombosis carried out on two different animal species (rat and guineapig) have shown that the peptides according to the invention, in particular the peptides of the general formula […] (II), viz. particularly peptide […] (peptide 1) and peptide […] The type of thrombus which is thus induced takes into account the participation of the blood platelets against which the peptide exerts its activity but also the reactivity of the injured vascular wall. […] In the same experimental thrombosis system, when a peptide according to the invention is used, particularly a peptide of the formula […]

water-solubility [1] | Compound | anti-thrombotic activity [2] | anti-thrombotic activity [3]
very good | N=C(N)NCCC[C@H](NC(=O)[C@@H](N)CCCCN)C(=O)N[C@@H](CC(=O)O)C(=O)N[C@@H](CO)C(=O)O [peptide 1, Lys-Arg-Asp-Ser] (H-KRDS-OH) | – | –
– | N=C(N)NCCC[C@H](NC(=O)[C@H](CC(=O)O)NC(=O)[C@H](CCCNC(=N)N)NC(=O)[C@@H](N)CCCCN)C(=O)O [peptide 6, Lys-Arg-Asp-Arg] (H-KRDR-OH) | exert an anti-thrombotic activity | exert an anti-thrombotic activity

Reference: patent US4943562A, “Tetra- and pentapeptides containing the lysyl-arginyl-aspartyl sequence and their applications as medicines, particularly anti-thrombotic medicines” (Institut des Vaisseaux et du Sang, priority 1987, dated 1990)
